According to PMC11647725, “Discovery of 4-(5-Membered)Heteroarylether-6-methylpicolinamide Negative Allosteric Modulators of Metabotropic Glutamate Receptor Subtype 5” (ACS Medicinal Chemistry Letters, 2024):

Key:
Tachykinin NK1 = Tachykinin NK1 (Homo sapiens, UniProt P25103); assay: Lead Profiling Screen, Eurofins Panlabs; assay type: binding; conditions: Tachykinin NK1, hum, read-out: % inh at 10 μM
[1] = IV plasma-brain level determination (PBL) in rat; assay type: in vivo; conditions: male, Sprague-Dawley, brain and plasma, SD rat, 0.2 mg/kg IV
human mGlu4 = target: T1, human mGlu4 (Homo sapiens, UniProt Q14833); assay: mGlu selectivity, calcium mobilization assay; assay type: cell-based
T1 construct: expressed in transfected cells
T1 sequence (Q14833 33-912): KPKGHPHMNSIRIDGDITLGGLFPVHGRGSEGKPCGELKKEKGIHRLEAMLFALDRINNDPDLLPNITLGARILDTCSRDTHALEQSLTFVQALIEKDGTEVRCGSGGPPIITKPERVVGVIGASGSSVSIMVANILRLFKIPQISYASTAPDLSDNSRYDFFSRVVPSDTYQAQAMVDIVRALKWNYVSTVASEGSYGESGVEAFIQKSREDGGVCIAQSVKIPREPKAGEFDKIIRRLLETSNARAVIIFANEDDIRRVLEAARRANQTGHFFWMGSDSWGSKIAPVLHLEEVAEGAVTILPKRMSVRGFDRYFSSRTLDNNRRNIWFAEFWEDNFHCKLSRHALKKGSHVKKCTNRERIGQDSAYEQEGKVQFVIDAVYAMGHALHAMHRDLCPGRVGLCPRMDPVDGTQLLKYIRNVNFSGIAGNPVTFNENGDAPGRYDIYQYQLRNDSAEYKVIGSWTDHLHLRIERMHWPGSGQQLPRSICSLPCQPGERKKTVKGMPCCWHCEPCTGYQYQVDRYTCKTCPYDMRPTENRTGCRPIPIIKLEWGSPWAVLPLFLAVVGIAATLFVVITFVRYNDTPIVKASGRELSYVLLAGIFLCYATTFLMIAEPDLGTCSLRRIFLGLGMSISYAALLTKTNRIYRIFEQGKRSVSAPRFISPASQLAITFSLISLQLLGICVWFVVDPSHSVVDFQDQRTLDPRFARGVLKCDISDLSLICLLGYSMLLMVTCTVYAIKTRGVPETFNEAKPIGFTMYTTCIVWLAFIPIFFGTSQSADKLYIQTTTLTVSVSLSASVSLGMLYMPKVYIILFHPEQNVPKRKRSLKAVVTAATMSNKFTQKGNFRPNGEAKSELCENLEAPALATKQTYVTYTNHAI
Protocol: (§1) the presence of 5% CO2, the dye solutions were removed and replaced with assay buffer using a microplate washer, leaving 20 μL of assay buffer in the cell plate. The compound, agonist, and cell plates were placed inside the Functional Drug Screening System (FDSS 7000 or uCell, Hamamatsu, Japan) to measure the calcium flux. Assays were run at 37 °C. A triple add protocol was used to measure Ca kinetics. Briefly, after establishment of a fluorescence baseline for 2 seconds (excitation, 480 nm; emission, 530 nm), 20 µL of test compound was added to the cells and the response was measured for 140 seconds. This was followed by the addition of 10 µL (5X) of an EC20 concentration of Glu agonist, and the response of the cells was measured for 125 seconds. A third addition occurred by adding 12 uL (5X) of an EC80 concentration of Glu agonist and the response of the cells was measured for 90 seconds. […] Calcium fluorescence was recorded as fold over basal fluorescence and raw data were normalized to the maximal response to Glu agonist (ECMax). Compound-evoked decreases in calcium response in the presence of Glu EC80 agonist were determined as inhibition activity, and potency (IC50) and maximum inhibition responses (% GluMin) of compounds were determined using a four-parameter logistical equation using GraphPad Prism (La Jolla, CA) or the Dotmatics software platform (Woburn, MA) : […]

human mGlu1 = target: T2, human mGlu1 (Homo sapiens, UniProt Q13255); assay: mGlu selectivity, calcium mobilization assay; assay type: cell-based
T2 construct: expressed in transfected cells; host or cells: TREx-293, tetracycline-inducible
T2 sequence (Q13255 19-1194): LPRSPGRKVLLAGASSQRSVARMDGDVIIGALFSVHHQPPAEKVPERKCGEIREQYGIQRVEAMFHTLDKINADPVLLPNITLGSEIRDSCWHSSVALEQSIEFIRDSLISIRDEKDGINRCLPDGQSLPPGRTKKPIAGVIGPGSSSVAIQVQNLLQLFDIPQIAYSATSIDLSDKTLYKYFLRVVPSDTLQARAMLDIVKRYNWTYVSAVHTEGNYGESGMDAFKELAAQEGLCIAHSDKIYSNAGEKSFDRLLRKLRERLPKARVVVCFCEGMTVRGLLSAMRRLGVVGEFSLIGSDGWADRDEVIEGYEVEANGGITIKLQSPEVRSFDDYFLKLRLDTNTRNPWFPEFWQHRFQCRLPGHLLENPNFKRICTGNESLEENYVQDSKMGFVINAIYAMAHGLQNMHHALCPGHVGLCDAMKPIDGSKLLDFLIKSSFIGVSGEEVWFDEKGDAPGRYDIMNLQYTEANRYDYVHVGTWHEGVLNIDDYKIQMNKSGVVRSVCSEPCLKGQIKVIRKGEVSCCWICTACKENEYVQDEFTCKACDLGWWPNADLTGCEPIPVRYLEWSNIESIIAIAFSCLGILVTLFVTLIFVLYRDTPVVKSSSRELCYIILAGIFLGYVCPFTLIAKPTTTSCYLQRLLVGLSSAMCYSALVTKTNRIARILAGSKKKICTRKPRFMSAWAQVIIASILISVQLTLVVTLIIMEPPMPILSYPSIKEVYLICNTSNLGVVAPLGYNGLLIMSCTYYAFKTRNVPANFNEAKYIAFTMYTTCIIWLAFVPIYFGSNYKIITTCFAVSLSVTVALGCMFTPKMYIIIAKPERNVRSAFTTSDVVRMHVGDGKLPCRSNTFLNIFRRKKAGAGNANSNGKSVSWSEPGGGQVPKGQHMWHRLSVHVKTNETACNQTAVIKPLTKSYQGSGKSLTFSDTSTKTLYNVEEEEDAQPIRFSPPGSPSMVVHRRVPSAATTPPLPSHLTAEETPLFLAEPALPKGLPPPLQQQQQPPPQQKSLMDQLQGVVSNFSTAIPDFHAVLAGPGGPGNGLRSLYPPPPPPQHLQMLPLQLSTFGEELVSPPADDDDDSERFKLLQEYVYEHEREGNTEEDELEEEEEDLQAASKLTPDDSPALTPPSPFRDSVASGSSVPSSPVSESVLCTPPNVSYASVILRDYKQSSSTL
Protocol: as §1

[2] = target: Epidermal Growth Factor (EGF) (Homo sapiens, UniProt P00533); assay: Lead Profiling Screen, Eurofins Panlabs; assay type: binding; conditions: hum, read-out: % inh at 10 μM
Sequence of Epidermal Growth Factor (EGF) (P00533 25-1210): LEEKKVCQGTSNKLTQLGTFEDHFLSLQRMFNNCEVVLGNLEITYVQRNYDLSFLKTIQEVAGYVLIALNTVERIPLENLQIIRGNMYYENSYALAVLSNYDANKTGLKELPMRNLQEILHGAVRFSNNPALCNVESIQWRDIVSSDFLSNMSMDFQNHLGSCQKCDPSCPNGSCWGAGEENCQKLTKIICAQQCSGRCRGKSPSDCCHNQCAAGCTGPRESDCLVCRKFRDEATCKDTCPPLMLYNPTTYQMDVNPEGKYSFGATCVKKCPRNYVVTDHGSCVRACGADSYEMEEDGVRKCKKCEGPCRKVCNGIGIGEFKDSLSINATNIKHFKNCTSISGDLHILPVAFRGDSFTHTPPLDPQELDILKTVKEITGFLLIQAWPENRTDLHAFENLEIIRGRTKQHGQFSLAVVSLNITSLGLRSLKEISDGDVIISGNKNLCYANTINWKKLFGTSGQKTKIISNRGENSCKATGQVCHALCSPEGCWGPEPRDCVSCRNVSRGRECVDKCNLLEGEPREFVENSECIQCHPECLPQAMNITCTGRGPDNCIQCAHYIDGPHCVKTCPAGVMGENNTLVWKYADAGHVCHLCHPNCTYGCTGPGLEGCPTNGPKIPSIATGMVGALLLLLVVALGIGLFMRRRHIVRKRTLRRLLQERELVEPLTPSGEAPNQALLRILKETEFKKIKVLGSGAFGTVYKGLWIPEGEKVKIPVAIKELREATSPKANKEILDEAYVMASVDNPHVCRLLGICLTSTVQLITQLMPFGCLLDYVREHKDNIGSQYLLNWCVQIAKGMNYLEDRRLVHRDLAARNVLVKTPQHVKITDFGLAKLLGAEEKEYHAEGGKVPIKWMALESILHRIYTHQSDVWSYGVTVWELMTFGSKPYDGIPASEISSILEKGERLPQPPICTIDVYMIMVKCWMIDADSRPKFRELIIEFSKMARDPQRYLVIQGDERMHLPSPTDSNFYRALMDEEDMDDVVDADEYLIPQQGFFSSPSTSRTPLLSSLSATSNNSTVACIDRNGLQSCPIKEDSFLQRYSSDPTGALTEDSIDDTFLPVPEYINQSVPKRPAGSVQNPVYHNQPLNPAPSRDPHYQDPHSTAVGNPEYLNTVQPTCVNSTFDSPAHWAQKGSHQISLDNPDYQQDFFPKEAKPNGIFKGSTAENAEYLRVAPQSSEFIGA
Excerpt: (§2) Nonetheless, as a non-aryl/heterobiaryl acetylene mGlu5 NAM with an encouraging in vivo rodent PK profile, we wished to further assess VU6043653 as a novel chemotype. Therefore, we compared metabolites in multiple species to better understand species differences in clearance and metabolism. […] Consistent with the high plasma clearance observed in dogs, high turnover was observed more so in dog hepatocytes than any other species tested (see the Supporting Information for additional details and results). To further evaluate our novel chemotype, the off-target and safety/toxicity profiles for this compound were further investigated.
(§3) Table S2. Lead Profiling Screen – Eurofins Panlabs for VU6043653.
(§4) Assay Name Species % inh at 10 μM […]

Calcium Channel N-Type = Calcium Channel N-Type (Rattus norvegicus, UniProt Q02294); assay: Lead Profiling Screen, Eurofins Panlabs; assay type: binding; conditions: read-out: % inh at 10 μM
Excerpt: as §2, §3, §4

Glutamate, Kainate = assay: Lead Profiling Screen, Eurofins Panlabs; assay type: binding; conditions: rat
Excerpt: as §2, §3, §4

[3] = system: Calcium Channel L-Type, Benzothiazepine; assay: Lead Profiling Screen, Eurofins Panlabs; assay type: binding; conditions: rat
Excerpt: as §2, §3, §4

GABAA, Muscimol, Central = assay: Lead Profiling Screen, Eurofins Panlabs; assay type: binding; conditions: rat
Excerpt: as §2, §3, §4

Glutamate, NMDA, Glycine = Glutamate, NMDA, Glycine (Rattus norvegicus, UniProt P35439); assay: Lead Profiling Screen, Eurofins Panlabs; assay type: binding; conditions: read-out: % inh at 10 μM
Sequence of Glutamate, NMDA, Glycine (P35439 394-800 limits assumed): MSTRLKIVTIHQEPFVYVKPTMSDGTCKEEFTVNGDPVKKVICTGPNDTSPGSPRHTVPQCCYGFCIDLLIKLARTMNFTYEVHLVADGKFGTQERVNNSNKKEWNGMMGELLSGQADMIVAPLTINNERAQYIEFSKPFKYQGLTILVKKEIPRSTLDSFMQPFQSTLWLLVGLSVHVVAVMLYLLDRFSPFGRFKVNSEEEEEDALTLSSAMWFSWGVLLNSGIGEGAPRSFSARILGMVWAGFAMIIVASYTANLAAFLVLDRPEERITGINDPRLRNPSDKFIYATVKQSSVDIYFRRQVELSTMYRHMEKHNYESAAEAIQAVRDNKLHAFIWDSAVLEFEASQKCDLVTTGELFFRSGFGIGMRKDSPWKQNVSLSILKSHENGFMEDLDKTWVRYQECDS
Excerpt: as §2, §3, §4

Glutamate, NMDA, Agonism = assay: Lead Profiling Screen, Eurofins Panlabs; assay type: binding; conditions: rat
Excerpt: as §2, §3, §4

[4] = system: Glutamate, NMDA, Phencyclidine; assay: Lead Profiling Screen, Eurofins Panlabs; assay type: binding; conditions: rat
Excerpt: as §2, §3, §4

[5] = system: GABAA, Flunitrazepam, Central; assay: Lead Profiling Screen, Eurofins Panlabs; assay type: binding; conditions: rat
Excerpt: as §2, §3, §4

[6] = system: Calcium Channel L-Type, Dihydropyridine; assay: Lead Profiling Screen, Eurofins Panlabs; assay type: binding; conditions: rat
Excerpt: as §2, §3, §4

[7] = target: Nicotinic Acetylcholine α1, Bungarotoxin (Homo sapiens, UniProt P02708+P07510+Q07001); assay: biochemical; assay type: binding; conditions: read-out: % inh at 10 μM
[8] = target: Nicotinic Acetylcholine α3β4 (Homo sapiens, UniProt P30926+P32297); assay: Lead Profiling Screen, Eurofins Panlabs; assay type: binding; conditions: Nicotinic Acetylcholine α3β4, hum, read-out: % inh at 10 μM
CYP 2D6 = target: T3, CYP 2D6 (Homo sapiens, UniProt P10635); assay: P450 inhibition in pooled human liver microsomes; assay type: in vitro ADME; conditions: pooled HLM, NADPH, CYP-specific probe substrates; listed as VU6043653
T3 construct: from tissue; host or cells: pooled human liver microsomes (per the earlier reading)
T3 sequence (P10635 whole entry): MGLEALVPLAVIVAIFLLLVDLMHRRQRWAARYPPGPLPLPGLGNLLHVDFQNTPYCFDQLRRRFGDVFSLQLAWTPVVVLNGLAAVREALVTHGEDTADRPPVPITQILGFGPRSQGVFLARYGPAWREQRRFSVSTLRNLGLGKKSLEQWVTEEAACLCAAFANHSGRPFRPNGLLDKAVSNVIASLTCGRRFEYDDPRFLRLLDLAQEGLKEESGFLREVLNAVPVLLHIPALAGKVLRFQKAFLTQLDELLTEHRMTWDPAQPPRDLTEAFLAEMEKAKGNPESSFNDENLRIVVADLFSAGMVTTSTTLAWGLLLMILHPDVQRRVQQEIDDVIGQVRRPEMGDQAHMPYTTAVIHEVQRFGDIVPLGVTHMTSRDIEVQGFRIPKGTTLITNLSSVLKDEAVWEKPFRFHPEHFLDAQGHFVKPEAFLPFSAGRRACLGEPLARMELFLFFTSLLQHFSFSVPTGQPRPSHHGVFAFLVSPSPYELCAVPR

CYP 3A4 = target: T4, CYP 3A4 (Homo sapiens, UniProt P08684); assay: P450 inhibition in pooled human liver microsomes; assay type: in vitro ADME; conditions: pooled HLM, NADPH, CYP-specific probe substrates; listed as VU6043653
T4 construct: from tissue; host or cells: pooled human liver microsomes (per the earlier reading)
T4 sequence (P08684 whole entry): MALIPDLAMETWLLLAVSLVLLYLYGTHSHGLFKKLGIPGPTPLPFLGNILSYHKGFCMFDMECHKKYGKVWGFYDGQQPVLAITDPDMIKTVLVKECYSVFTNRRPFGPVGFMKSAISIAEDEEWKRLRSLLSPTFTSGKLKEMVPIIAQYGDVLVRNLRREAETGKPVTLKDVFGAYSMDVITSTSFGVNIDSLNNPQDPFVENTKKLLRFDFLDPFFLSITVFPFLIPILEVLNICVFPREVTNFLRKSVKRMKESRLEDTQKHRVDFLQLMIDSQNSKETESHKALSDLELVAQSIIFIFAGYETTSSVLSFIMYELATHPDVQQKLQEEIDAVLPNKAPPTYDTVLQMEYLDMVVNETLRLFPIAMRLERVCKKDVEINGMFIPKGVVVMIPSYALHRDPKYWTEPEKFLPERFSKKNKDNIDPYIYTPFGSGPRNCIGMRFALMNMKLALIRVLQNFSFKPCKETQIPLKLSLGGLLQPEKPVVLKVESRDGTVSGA

Transporter, GABA = assay: Lead Profiling Screen, Eurofins Panlabs; assay type: binding; conditions: rat

Sequence of Tachykinin NK1 (P25103 whole entry): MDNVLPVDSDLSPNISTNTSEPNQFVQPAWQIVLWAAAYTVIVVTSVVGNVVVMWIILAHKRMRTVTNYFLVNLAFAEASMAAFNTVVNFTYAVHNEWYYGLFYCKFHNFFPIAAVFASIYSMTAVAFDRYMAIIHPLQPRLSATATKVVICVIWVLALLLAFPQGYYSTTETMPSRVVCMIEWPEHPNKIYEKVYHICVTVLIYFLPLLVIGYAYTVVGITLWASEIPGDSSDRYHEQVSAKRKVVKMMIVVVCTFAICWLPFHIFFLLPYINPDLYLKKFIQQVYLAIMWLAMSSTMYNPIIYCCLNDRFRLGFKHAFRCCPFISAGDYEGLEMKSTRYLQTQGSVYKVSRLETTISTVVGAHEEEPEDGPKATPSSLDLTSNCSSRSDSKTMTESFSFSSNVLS

Cc1cc(Oc2cnn(C)c2)cc(C(=O)Nc2ccc(F)cn2)n1 [22iA]
inhibition at 10 µM (Tachykinin NK1): 15%
Kp at 0.25 h ([1]; total brain-to-plasma partition ratio): 1.68
Kp uu at 0.25 h ([1]; unbound brain-to-plasma partition ratio): 0.34
IC50, human mGlu4 (human mGlu4): inactive
IC50, human mGlu1 (human mGlu1): inactive
inhibition at 10 µM [2]: -3%
inhibition at 10 µM (Calcium Channel N-Type): -8%
% inh at 10 μM (Glutamate, Kainate): -7%
% inh at 10 μM [3]: 22%
% inh at 10 μM (GABAA, Muscimol, Central): -5%
inhibition at 10 µM (Glutamate, NMDA, Glycine): -18%
% inh at 10 μM (Glutamate, NMDA, Agonism): 3%
% inh at 10 μM [4]: -4%
% inh at 10 μM [5]: 0%
% inh at 10 μM [6]: 1%
inhibition at 10 µM [7]: -12%
inhibition at 10 µM [8]: 6%
IC50 (CYP 2D6): ≥ 30 µM
IC50 (CYP 3A4): ≥ 30 µM
% inh at 10 μM (Transporter, GABA): -1%
